13 compounds from PubChem BioAssay (NCI) can be followed below.

Test systems include RPMI-8226 leukemia; SW-620 colon; SK-MEL-5 melanoma; UACC-62 melanoma; ACHN renal; UACC-257 melanoma; A498 renal; HT29 colon; OVCAR-3 ovarian; HS 578T breast.
Common to all, as to assay: NCI tumour cell line growth inhibition, 48 h

“And” between values parts separate entries of the source, which are not always exact repeats. Equal values may be shown once.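 In this assay, cells in 96-well plates receive the compound at five concentrations for 48 hours. Endpoints are linearly interpolated between the surrounding concentrations. GI50: concentration for 50% inhibition of growth. TGI: total growth inhibition.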

For the compound `CN1C(c2ccccc2)CC(C)(O)CC1c1ccccc1` (configuration not stated), the TGI in the test with RPMI-8226 leukemia, in the test on SW-620 colon, in the test with SK-MEL-5 melanoma, with UACC-62 melanoma, with ACHN renal and in the test with UACC-257 melanoma was above 100 µM in each case. The TGI in the test on A498 renal, in the test with HT29 colon and in the test with OVCAR-3 ovarian was above 100 µM throughout.
For `Cn1cnc([N+](=O)[O-])c1Sc1nc2ccccc2o1`, the TGI came to 22.5 µM in the test with RPMI-8226 leukemia; 14.3 µM with SW-620 colon; 26.5 µM with SK-MEL-5 melanoma; 25.5 µM with UACC-62 melanoma; 24.9 µM in the test with ACHN renal; 19.8 µM with UACC-257 melanoma. In addition, the values for the TGI in the test with A498 renal, in the test on HT29 colon and in the test with OVCAR-3 ovarian were 45.2 µM, 12.9 µM and 14.7 µM, respectively.
Turning to `CCC[CH2][Sn]1([CH2]CCC)[O]C(=O)CN=C(C)c2ccccc2[O]1`, the GI50 in the test with RPMI-8226 leukemia was 0.468 µM; in the test with SW-620 colon, 0.413 µM; in the test on SK-MEL-5 melanoma, 2.55 µM; in the test with UACC-62 melanoma it was 0.922 µM; with ACHN renal, 0.881 µM; with UACC-257 melanoma it was 0.955 µM. Besides, the results for the GI50 with A498 renal, in the test with HT29 colon and in the test with OVCAR-3 ovarian were 2.72 µM, 1.66 µM and 1.4 µM, respectively. The TGI in the test with RPMI-8226 leukemia is 2.8 µM; with SW-620 colon, 1.59 µM; with SK-MEL-5 melanoma, above 100 µM; with UACC-62 melanoma it was 2.21 µM; in the test with ACHN renal, 2.13 µM; with UACC-257 melanoma it was 2.2 µM. The TGI in the test on A498 renal came to 11.4 µM; in the test on HT29 colon, 3.1 µM; in the test with OVCAR-3 ovarian, 2.73 µM.
Turning to `CN(C)c1ccc(/C=C(\C#N)c2ccccc2)cc1`, the GI50 in the test with RPMI-8226 leukemia is 0.288 µM and 0.648 µM; in the test on SW-620 colon, 0.28 µM and 0.447 µM and 0.444 µM; in the test on SK-MEL-5 melanoma, 0.398 µM and 0.45 µM and 0.345 µM; in the test with UACC-62 melanoma it was 0.312 µM and 0.36 µM and 0.52 µM; with ACHN renal it was 0.901 µM and 0.688 µM and 1.37 µM; in the test on UACC-257 melanoma, 44.7 µM and 57.4 µM. For the same compound, the GI50 in the test with A498 renal is 0.633 µM and 0.281 µM and 0.316 µM; in the test with HT29 colon, 0.33 µM and 0.352 µM and 0.347 µM; in the test with OVCAR-3 ovarian, 0.272 µM and 0.398 µM and 0.365 µM. Further, the TGI is above 100 µM with SW-620 colon; 26.3 µM and 18 µM and 17.8 µM in the test on SK-MEL-5 melanoma; above 100 µM with UACC-62 melanoma; above 100 µM in the test on ACHN renal; above 100 µM with UACC-257 melanoma; 10.9 µM and 71.3 µM with HT29 colon. For the same compound, the TGI in the test with OVCAR-3 ovarian is 1.22 µM and 3.23 µM and 4.25 µM.
Consider `COc1ccc(NC(=S)C#N)cc1`, for which the TGI with RPMI-8226 leukemia, in the test on SW-620 colon, in the test on SK-MEL-5 melanoma, in the test with UACC-62 melanoma, in the test with ACHN renal and in the test on UACC-257 melanoma was above 100 µM each time. Besides, the TGI in the test on A498 renal, in the test on HT29 colon and with OVCAR-3 ovarian was above 100 µM throughout.
Consider `Cc1cc2c(C(=O)NCC#N)cccc2n1-c1nc2c(c(NCc3ccccc3)n1)CCCC2`, for which the GI50 with SW-620 colon was 0.355 µM; in the test with SK-MEL-5 melanoma, 0.118 µM; in the test on UACC-62 melanoma, 0.203 µM; with ACHN renal, 0.28 µM; in the test with HT29 colon it was 0.303 µM; with OVCAR-3 ovarian, 0.245 µM. Moreover, the GI50 in the test on HS 578T breast was 0.386 µM. The TGI turned out to be 1.29 µM in the test on SW-620 colon; 0.245 µM in the test with SK-MEL-5 melanoma; 0.482 µM in the test with UACC-62 melanoma; 1.24 µM in the test with ACHN renal; 1.05 µM with HT29 colon; 0.62 µM in the test with OVCAR-3 ovarian. In addition, in the test on HS 578T breast, the TGI worked out at 47.5 µM.
For `O=C(O)CCC(=O)Oc1ccc(O)c2c1CCCC2=O`, the TGI in the test on RPMI-8226 leukemia, with SW-620 colon, with SK-MEL-5 melanoma, in the test on UACC-62 melanoma, in the test with ACHN renal and in the test on UACC-257 melanoma was above 100 µM throughout. Further, the TGI in the test with A498 renal, in the test on HT29 colon and with OVCAR-3 ovarian was above 100 µM each time.
In the case of `N#CC(C(=O)CCC(=O)Nc1ccc(Cl)cc1)c1ccc(Cl)cc1` (configuration not stated), the TGI with RPMI-8226 leukemia, in the test with SW-620 colon, in the test on SK-MEL-5 melanoma, with UACC-62 melanoma, in the test with ACHN renal and in the test with UACC-257 melanoma was above 100 µM throughout. Further, the TGI in the test with A498 renal, with HT29 colon and with OVCAR-3 ovarian was above 100 µM throughout.
`O=C1C(Cl)=C(Cl)C(=O)N1c1ccccc1Cl`: the TGI was above 88.1 µM in the test with RPMI-8226 leukemia; above 95 µM in the test with SW-620 colon; above 100 µM in the test with SK-MEL-5 melanoma; above 100 µM in the test on UACC-62 melanoma; above 100 µM with ACHN renal; above 100 µM in the test with UACC-257 melanoma. Further, the TGI with A498 renal, in the test with HT29 colon and in the test with OVCAR-3 ovarian was above 100 µM in each case.
In the case of `O=C(CCC(=O)Nc1ccc(Cl)cc1)CC(=O)c1ccc2ccccc2c1`, the TGI in the test on RPMI-8226 leukemia, with SW-620 colon, in the test on SK-MEL-5 melanoma, with UACC-62 melanoma, with ACHN renal and with UACC-257 melanoma was above 100 µM each time. Besides, the TGI in the test on A498 renal, with HT29 colon and in the test on OVCAR-3 ovarian was above 100 µM each time.
Regarding `O=C(Nc1ccccc1)n1cc(-c2ccccn2)c(N2CCOCC2)n1`, the TGI in the test on RPMI-8226 leukemia, in the test with SW-620 colon, in the test on SK-MEL-5 melanoma, in the test on UACC-62 melanoma, in the test with ACHN renal and in the test on UACC-257 melanoma was above 100 µM throughout. Further, the TGI in the test with A498 renal was found to be 51.1 µM; with HT29 colon it was 19.1 µM; in the test with OVCAR-3 ovarian, 29.5 µM.
For `Cc1ccccc1C=NC12CC3CC(CC(C3)C1)C2`, the TGI with RPMI-8226 leukemia, in the test with SW-620 colon, with SK-MEL-5 melanoma, with UACC-62 melanoma, in the test with ACHN renal and in the test on UACC-257 melanoma was above 100 µM each time. The TGI with A498 renal, with HT29 colon and in the test on OVCAR-3 ovarian was above 100 µM each time.
With `CC(=O)n1nnc2ccc([N+](=O)[O-])cc21`, the TGI in the test with RPMI-8226 leukemia, in the test on SW-620 colon, in the test on SK-MEL-5 melanoma, in the test on UACC-62 melanoma, in the test on ACHN renal and with UACC-257 melanoma was above 100 µM throughout. The TGI in the test on HT29 colon and with OVCAR-3 ovarian was above 100 µM throughout.
